Kd data for 8 compounds are collected here from BindingDB's records for doi:10.1021/cb700166z (Albert Einstein College of Medicine, 2007).

Structures are written as SMILES. “And” between values parts separate entries of the source, which are not always exact repeats. Equal entries are not always repeated.

Common to all, as to assay: Enzyme Activity Assay
Common to all, as to settings: pH 7.5; 25 °C

Test [1] deals with 5'-methylthioadenosine/S-adenosylhomocysteine nucleosidase (Escherichia coli (strain K12), UniProt P0AF12). An excerpt: (§1) Enzyme activity assay using various bacterial species of 5'-Methylthioadenosine nucleosidases (MTANs) excepted for MTAP, for human MTAP.
Test [2] addresses 5'-methylthioadenosine/S-adenosylhomocysteine nucleosidase (Klebsiella pneumoniae (strain 342), UniProt B5Y1L0).
From the text: as §1

Test [3] deals with T1, 5'-methylthioadenosine/S-adenosylhomocysteine nucleosidase (Neisseria meningitidis (strain alpha14), UniProt C6S634).
T1 sequence (C6S634 whole entry): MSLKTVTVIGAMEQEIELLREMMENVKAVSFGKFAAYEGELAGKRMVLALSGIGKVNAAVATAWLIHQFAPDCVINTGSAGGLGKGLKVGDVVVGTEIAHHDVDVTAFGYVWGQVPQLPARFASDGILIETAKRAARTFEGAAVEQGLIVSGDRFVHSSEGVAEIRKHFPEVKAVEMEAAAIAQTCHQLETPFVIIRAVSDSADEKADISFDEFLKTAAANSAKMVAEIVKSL
From the text: as §1

In test [4] the target is T2, 5'-methylthioadenosine/S-adenosylhomocysteine nucleosidase (Staphylococcus aureus (strain COL), UniProt Q5HFG2).
T2 sequence (Q5HFG2 whole entry): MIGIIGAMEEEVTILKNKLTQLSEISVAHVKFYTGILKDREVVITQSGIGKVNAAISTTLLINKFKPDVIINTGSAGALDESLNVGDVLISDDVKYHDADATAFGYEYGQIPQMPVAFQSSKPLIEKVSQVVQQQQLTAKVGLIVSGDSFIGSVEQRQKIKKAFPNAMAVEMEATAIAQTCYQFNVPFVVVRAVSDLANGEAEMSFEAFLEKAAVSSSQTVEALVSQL
From the text: as §1

In test [5] the target is T3, Adenosylhomocysteine nucleosidase (Streptococcus pneumoniae (strain ATCC BAA-255 / R6), UniProt Q8DQ16).
T3 sequence (Q8DQ16 whole entry): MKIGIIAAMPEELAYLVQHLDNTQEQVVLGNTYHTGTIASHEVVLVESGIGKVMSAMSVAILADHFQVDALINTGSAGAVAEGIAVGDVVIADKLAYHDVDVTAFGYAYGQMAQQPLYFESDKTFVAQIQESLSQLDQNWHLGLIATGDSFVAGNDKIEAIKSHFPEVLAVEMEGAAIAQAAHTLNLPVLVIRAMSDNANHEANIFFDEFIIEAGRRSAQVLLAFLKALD
From the text: as §1

Test [6] deals with T4, Aminodeoxyfutalosine nucleosidase (Helicobacter pylori (strain ATCC 700392 / 26695), UniProt O24915).
T4 sequence (O24915 whole entry): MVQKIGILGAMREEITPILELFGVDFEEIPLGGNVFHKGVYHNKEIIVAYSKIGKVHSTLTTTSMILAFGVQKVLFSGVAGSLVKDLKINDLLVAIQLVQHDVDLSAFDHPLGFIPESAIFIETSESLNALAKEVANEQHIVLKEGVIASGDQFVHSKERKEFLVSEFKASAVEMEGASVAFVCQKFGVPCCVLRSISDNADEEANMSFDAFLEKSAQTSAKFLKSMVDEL
From the text: as §1

The target in test [7] is T5, S-methyl-5'-thioadenosine phosphorylase (Homo sapiens, UniProt Q13126).
T5 sequence (Q13126 whole entry): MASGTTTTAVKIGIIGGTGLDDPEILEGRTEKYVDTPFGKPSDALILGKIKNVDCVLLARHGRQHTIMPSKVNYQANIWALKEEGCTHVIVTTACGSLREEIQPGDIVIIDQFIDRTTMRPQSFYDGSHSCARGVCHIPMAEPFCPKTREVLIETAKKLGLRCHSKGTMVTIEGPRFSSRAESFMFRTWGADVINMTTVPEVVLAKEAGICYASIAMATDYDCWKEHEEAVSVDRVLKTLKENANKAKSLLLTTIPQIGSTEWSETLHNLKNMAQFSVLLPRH
From the text: as §1

Sequence of 5'-methylthioadenosine/S-adenosylhomocysteine nucleosidase (Escherichia coli (strain K12), UniProt P0AF12) (P0AF12 whole entry): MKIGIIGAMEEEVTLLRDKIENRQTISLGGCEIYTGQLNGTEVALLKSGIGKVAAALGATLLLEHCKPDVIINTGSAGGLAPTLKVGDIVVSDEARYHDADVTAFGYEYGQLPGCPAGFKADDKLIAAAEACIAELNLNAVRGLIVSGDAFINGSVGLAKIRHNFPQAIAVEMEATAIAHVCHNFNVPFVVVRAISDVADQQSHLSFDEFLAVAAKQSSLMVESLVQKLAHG
Sequence of 5'-methylthioadenosine/S-adenosylhomocysteine nucleosidase (Klebsiella pneumoniae (strain 342), UniProt B5Y1L0) (B5Y1L0 whole entry): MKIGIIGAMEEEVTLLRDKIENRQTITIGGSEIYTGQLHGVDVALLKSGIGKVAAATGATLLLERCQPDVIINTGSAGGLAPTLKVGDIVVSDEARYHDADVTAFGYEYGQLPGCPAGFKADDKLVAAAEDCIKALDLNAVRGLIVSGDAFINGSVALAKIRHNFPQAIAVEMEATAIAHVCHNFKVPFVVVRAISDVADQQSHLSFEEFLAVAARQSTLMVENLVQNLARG

Broadly, the Kd is the concentration at which binding is half-saturated. High values mean lower affinity, low ones higher affinity. In the case of `CCSCC1NC(c2c[nH]c3c(N)ncnc23)C(O)C1O` (stereo unspecified), the Kd in test [1] is 0.012 nM; in test [2], 13 nM; in test [3] it was 0.12 nM; in test [4], 12 nM; in test [5], 40 nM; in test [6], 3.4 nM. In test [7], this compound showed a Kd of 0.266 nM.
For `Nc1ncnc2c(C3NC(CSCc4ccccc4)C(O)C3O)c[nH]c12` (stereo unspecified), the Kd turned out to be 0.027 nM in test [1]; 13 nM in test [2]; 0.17 nM in test [3]; 12 nM in test [4]; 210 nM in test [5]; 200 nM in test [6]. For the same compound, binding in test [7] was characterised by a dissociation constant (Kd) of 26 nM.
Consider `Nc1ncnc2c(C3NC(CSc4ccc(Cl)cc4)C(O)C3O)c[nH]c12` (stereo unspecified), for which the Kd in test [1] is 0.002 nM; in test [2] it was 4.1 nM; in test [3] it was 0.063 nM; in test [4], 53 nM; in test [5], 190 nM; in test [6], 40 nM. The Kd in test [7] worked out at 0.166 nM.
Turning to `Nc1ncnc2c(CN3CC(O)C(CSCc4ccccc4)C3)c[nH]c12` (stereo unspecified), the dissociation constant Kd came out at 1.9 nM in test [2]; 0.024 nM in test [3]; 0.841 nM in test [4]; 2.4 nM in test [5]; 200 nM in test [6]; 0.7 nM in test [7].
For `CSCC1NC(c2c[nH]c3c(N)ncnc23)C(O)C1O` (stereo unspecified) [2-(4-Amino-5H-pyrrolo[3,2-d]pyrimidin-7-yl)-3,4-dihydroxy-5-methylsulfanylmethyl-pyrrolidinium], the equilibrium dissociation constant (Kd) in test [1] was determined as 0.077 nM; in test [2], 45 nM; in test [3], 0.36 nM; in test [4], 77 nM; in test [5], 1000 nM; in test [6] it was 1.2 nM. The same compound had an equilibrium dissociation constant (Kd) in test [7] of 1 nM.
On to `CCSC[C@H]1CN(Cc2c[nH]c3c(N)ncnc23)C[C@@H]1O` [DADMe-ImmA-Et], for which the Kd in test [2] is 2.2 nM; in test [3], 0.046 nM; in test [4] it was 1.3 nM; in test [5], 10 nM; in test [6] it was 0.515 nM.
On to `CSC[C@H]1CN(Cc2c[nH]c3c(N)ncnc23)C[C@@H]1O` [DADMe-ImmA-Me], for which the equilibrium dissociation constant (Kd) is 0.784 nM in test [2]; 0.14 nM in test [3]; 1.4 nM in test [4]; 24 nM in test [5]; 0.571 nM in test [6]; 0.086 nM and 0.034 nM in test [7].
As for `Nc1ncnc2c(CN3CC(O)C(CSc4ccc(Cl)cc4)C3)c[nH]c12` (stereo unspecified) [DADMe-ImmA-p-ClPh], the Kd in test [2] turned out to be 0.5 nM; in test [3] it was 0.021 nM; in test [4] it was 8 nM; in test [5], 0.36 nM; in test [6], 0.57 nM; in test [7], 0.01 nM.
